Test results from patent publication US20240383911A1, “AZAINDAZOLE MACROCYCLE COMPOUNDS AND USES THEREOF” (BROADENBIO CO., LTD, priority 2021, published 2024).

What was measured:
[1] = system: Human Jurkat-E6-1 cells; experiment: Detection of IL-2 production by Jurkat cells using ELISA; format: cell-based; details: anti-CD3/anti-CD28 stimulation 24 hours, read-out: Percentage of the amount of IL-2 secreted by compound treated vs DMSO-treated cells; for activity at 3 µM: tested compound 3.0 μM; for activity at 0.33 µM: tested compound 0.33 μM
Protocol: (§1) Tested compounds: compounds prepared in the Examples of this invention.
Human Jurkat-E6-1 cells were incubated with various concentrations of tested compounds for 30 minutes in a humidified incubator at 37° C. and 5% CO2. Cells were transferred to cell culture plates pre-coated with anti-human CD3 antibody, then soluble anti-human CD28 antibody was added, and cells were stimulated for 24 hours at 37° C. and 5% CO2 in a humidified incubator. The cell culture medium was collected after centrifugation, and was then transferred to a 96-well transparent microtiter plate (Thermo) pre-coated with anti-human IL-2 antibody, incubated at room temperature for 2 hours with gently shaking, washed with washing buffer for 4 times, and then followed the ELISA MAX Deluxe Set Human IL-2 (BioLegend) kit procedures, used a microplate reader (Molecular Device, i3X) to read the GD value at 450 nm. The best standard curve was selected by the microplate reader application software, and the corresponding concentration was calculated according to the GD value of the standard. Results are expressed as a percentage (%) of the amount of IL-2 secreted by compound-treated vs DMSO-treated cells.

[2] = biological target: HPK1 (Homo sapiens, UniProt Q92918); experiment: HPK1 kinase activity inhibition test (ADP-Glo, luminescence); format: biochemical; details: 2 μM ATP, 5 nM HPK1, read-out: IC50, inhibitory effects on HPK1 kinase activity
Protocol: The kinase activity of HPK1 is manifested as activity of autophosphorylation and phosphorylation of downstream substrates. In the process of autophosphorylation, additional substrates are not required, and ATP is consumed to generate ADP. The amount of the product is measured by ADP-Glo reagent and luminescence method to reflect kinase activity.
as §1
Preparation of compound stock solution: dissolve the test compound in 100% DMSO to make a 10 mM stock solution;
Preparation of 4×Kinase Reaction Buffer:
Preparation of 2×HPK1 Kinase Solution:
Preparation of 4×ATP Mixture:
Dilute the stock solution of the test compound by 5 times with 100% DMSO, make a 4-fold equal dilution in a 96-well dilution plate, add 1 μL of the compound to 49 μL of kinase reaction buffer, and shake on a microplate shaker for 20 minutes. Transfer 2 μL of 2×HPK1 kinase solution to 384 reaction plate, add 1 μL of the test compound to the 384 reaction plate (Greiner, Cat #784075), centrifuge for 1 minute (1000 rpm/min), incubate at 25° C. for 10 minutes. Transfer 1 μL of the 4×ATP mixture to a 384 reaction plate, centrifuge for 1 minute (1000 rpm/min), and incubate at 25° C. for 60 minutes. In the reaction system, the final concentration of DMSO is 0.5%. Transfer 4 μL of ADP-Glo to a 384 reaction plate, centrifuge for 1 minute (1000 rpm/min), and incubate at 25° C. for 40 minutes. Transfer 8 μL detection solution to a 384 reaction plate, centrifuge for 1 minute (1000 rpm/min), and incubate at 25° C. for 40 minutes. The […] is read using a Biotek multi-function plate reader, and the IC50 (half inhibitory concentration) of the compound is obtained using a four-coefficient nonlinear fitting formula.

HPK1, sequence (Q92918 whole entry): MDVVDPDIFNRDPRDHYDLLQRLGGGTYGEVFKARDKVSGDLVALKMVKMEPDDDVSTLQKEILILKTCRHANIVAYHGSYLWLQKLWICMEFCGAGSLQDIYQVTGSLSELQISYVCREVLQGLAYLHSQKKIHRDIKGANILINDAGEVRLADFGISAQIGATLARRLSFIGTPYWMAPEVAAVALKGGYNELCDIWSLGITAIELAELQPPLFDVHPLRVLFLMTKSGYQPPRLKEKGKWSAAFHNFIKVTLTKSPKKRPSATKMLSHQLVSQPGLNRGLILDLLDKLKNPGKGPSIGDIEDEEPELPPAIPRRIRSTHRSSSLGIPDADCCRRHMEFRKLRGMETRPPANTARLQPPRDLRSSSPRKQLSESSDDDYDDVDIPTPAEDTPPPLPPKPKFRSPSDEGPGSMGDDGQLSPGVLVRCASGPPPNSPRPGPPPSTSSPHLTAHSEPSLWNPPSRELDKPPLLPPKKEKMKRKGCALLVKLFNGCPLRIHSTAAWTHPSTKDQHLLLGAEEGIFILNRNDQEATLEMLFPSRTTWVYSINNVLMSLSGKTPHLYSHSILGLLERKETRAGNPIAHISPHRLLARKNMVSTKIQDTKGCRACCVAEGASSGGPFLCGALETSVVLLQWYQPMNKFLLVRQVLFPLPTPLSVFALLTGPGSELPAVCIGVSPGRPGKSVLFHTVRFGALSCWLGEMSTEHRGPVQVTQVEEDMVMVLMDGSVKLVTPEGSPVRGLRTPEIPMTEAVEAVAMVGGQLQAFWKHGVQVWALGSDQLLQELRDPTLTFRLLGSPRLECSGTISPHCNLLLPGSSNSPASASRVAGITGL

| Compound | IC50 [2] [nM] | activity at 3 µM [1] [%] | activity at 0.33 µM [1] [%] | activity at 1 µM ([1]; tested compound 1.0 μM) [%] |
| --- | --- | --- | --- | --- |
| Fc1cccc2c1-c1cc3c(n[nH]c3cn1)-c1cnc(N3CCOCC3)c(c1)OCCCO2 [Compound 4, 16-fluoro-5-(morpholin-4-yl)-7,11-dioxa-4,19,22,23-tetraazapentacyclo[16.5.2.1^2,6.0^12,17.0^21,24]hexacosa-1(23),2(26),3,5,12,14,16,18,20,24-decaene] | 5 to 50 | 801 |  |  |
| CN1CCN(c2ccc3cc2OCCCCOc2cccc(F)c2-c2cc4c-3n[nH]c4cn2)CC1 [Compound 7, 17-fluoro-5-(4-methylpiperazin-1-yl)-7,12-dioxa-20,23,24-triazapentacyclo[17.5.2.1^2,6.0^13,18.0^22,25]heptacosa-1(24),2(27),3,5,13,15,17,19,21,25-decaene] | 5 to 50 | 404 |  |  |
| CN1C2CCC1CN(c1ccc3cc1OCCCOCc1cccc(F)c1-c1cc4c-3n[nH]c4cn1)C2 [Compound 18, 17-fluoro-5-{8-methyl-3,8-diazabicyclo[3.2.1]octan-3-yl}-7,11-dioxa-20,23,24-triazapentacyclo[17.5.2.1^2,6.0^13,18.0^22,25]heptacosa-1(24),2,4,6(27),13(18),14,16,19,21,25-decaene] | ≤ 5 |  | 486 |  |
| CN1CCN(c2ccc3cc2OCCCCOCc2cccc(F)c2-c2cc4c-3n[nH]c4cn2)CC1 [Compound 100, 18-fluoro-5-(4-methylpiperazin-1-yl)-7,12-dioxa-21,24,25-triazapentacyclo[18.5.2.1^2,6.0^14,19.0^23,26]octacosa-1(25),2(28),3,5,14(19),15,17,20,22,26-decaene] | 5 to 50 |  |  | 235 |
| CN1C[C@@H]2C[C@H]1CN2c1ccc2cc1OCCCOc1cccc(F)c1-c1cc3c-2n[nH]c3cn1 [Compound 140, 16-fluoro-5-[(1S,4S)-5-methyl-2,5-diazabicyclo[2.2.1]heptan-2-yl]-7,11-dioxa-19,22,23-triazapentacyclo[16.5.2.1^2,6.0^12,17.0^21,24]hexacosa-1(23),2,4,6(26),12(17),13,15,18,20,24-decaene] | ≤ 5 |  |  |  |
| CN1C[C@H]2C[C@@H]1CN2c1ccc2cc1OCCCOc1cccc(F)c1-c1cc3c-2n[nH]c3cn1 [Compound 141, 16-fluoro-5-[(1R,4R)-5-methyl-2,5-diazabicyclo[2.2.1]heptan-2-yl]-7,11-dioxa-19,22,23-triazapentacyclo[16.5.2.1^2,6.0^12,17.0^21,24]hexacosa-1(23),2,4,6(26),12(17),13,15,18,20,24-decaene] | ≤ 5 |  |  |  |
| Fc1cccc2c1-c1cc3c(n[nH]c3cn1)-c1ccc(N3C[C@@H]4C[C@H]3CN4C3COC3)c(c1)OCCCO2 [Compound 142, 16-fluoro-5-[(1S,4S)-5-(oxetan-3-yl)-2,5-diazabicyclo[2.2.1]heptan-2-yl]-7,11-dioxa-19,22,23-triazapentacyclo[16.5.2.1^2,6.0^12,17.0^21,24]hexacosa-1(23),2,4,6(26),12(17),13,15,18,20,24-decaene] | 5 to 50 |  |  |  |
| CN1CCN(c2ccc3cc2OCCCOc2cccc(F)c2-c2cc4c-3n[nH]c4cn2)CC1(C)C [Compound 143, 16-fluoro-5-(3,3,4-trimethylpiperazin-1-yl)-7,11-dioxa-19,22,23-triazapentacyclo[16.5.2.1^2,6.0^12,17.0^21,24]hexacosa-1(23),2,4,6(26),12(17),13,15,18,20,24-decaene] | ≤ 5 |  |  |  |

The next lines start with results.

| IC50 [2] [nM] | Compound | activity at 3 µM [1] [%] | activity at 0.33 µM [1] [%] | activity at 1 µM ([1]; tested compound 1.0 μM) [%] |
| --- | --- | --- | --- | --- |
| ≤ 5 | CN1CCN(c2ccc3cc2OCCCOCc2cccc(F)c2-c2cc4c-3n[nH]c4cn2)CC1(C)C [Compound 17, 17-fluoro-5-(3,3,4-trimethylpiperazin-1-yl)-7,11-dioxa-20,23,24-triazapentacyclo[17.5.2.1^2,6.0^13,18.0^22,25]heptacosa-1(24),2,4,6(27),13(18),14,16,19,21,25-decaene] |  | 439 |  |
| ≤ 5 | CN1CCN(c2ccc3cc2OCCCCCc2cccc(F)c2-c2cc4c-3n[nH]c4cn2)CC1 [Compound 101, 17-fluoro-5-(4-methylpiperazin-1-yl)-7-oxa-20,23,24-triazapentacyclo[17.5.2.1^2,6.0^13,18.0^22,25]heptacosa-1(24),2(27),3,5,13(18),14,16,19,21,25-decaene] |  | 257 |  |
| ≤ 5 | Fc1cccc2c1-c1cc3c(n[nH]c3cn1)-c1ccc(N3CCC(N4CCOCC4)CC3)c(c1)OCCCO2 [Compound 104, 16-fluoro-5-[4-(morpholin-4-yl)piperidin-1-yl]-7,11-dioxa-19,22,23-triazapentacyclo[16.5.2.1^2,6.0^12,17.0^21,24]hexacosa-1(23),2,4,6(26),12(17),13,15,18,20,24-decaene] |  | 273 |  |
| ≤ 5 | Fc1cccc2c1-c1cc3c(n[nH]c3cn1)-c1ccc(N3CCC(N4CCOCC4)CC3)c(c1)OCCCOC2 [Compound 105, 17-fluoro-5-[4-(morpholin-4-yl)piperidin-1-yl]-7,11-dioxa-20,23,24-triazapentacyclo[17.5.2.1^2,6.0^13,18.0^22,25]heptacosa-1(24),2,4,6(27),13(18),14,16,19,21,25-decaene] |  | 313 |  |
| ≤ 5 | CN1CCN(c2ccc3cc2OCCCOc2cccc(F)c2-c2cc4c-3n[nH]c4cn2)C[C@@H]1CO [Compound 130, [(2R)-4-{16-fluoro-7,11-dioxa-19,22,23-triazapentacyclo[16.5.2.1^2,6.0^12,17.0^21,24]hexacosa-1(23),2,4,6(26),12(17),13,15,18,20,24-decaen-5-yl}-1-methylpiperazin-2-yl]methanol] |  |  |  |
| ≤ 5 | CN1CCN(c2ccc3cc2OCCCOc2cccc(F)c2-c2cc4c-3n[nH]c4cn2)C[C@H]1CO [Compound 131, [(2S)-4-{16-fluoro-7,11-dioxa-19,22,23-triazapentacyclo[16.5.2.1^2,6.0^12,17.0^21,24]hexacosa-1(23),2,4,6(26),12(17),13,15,18,20,24-decaen-5-yl}-1-methylpiperazin-2-yl]methanol] |  |  |  |
| ≤ 5 | O=C1OC[C@H]2CN(c3ccc4cc3OCCCOc3cccc(F)c3-c3cc5c-4n[nH]c5cn3)CCN12 [Compound 134, (8aR)-7-{16-fluoro-7,11-dioxa-19,22,23-triazapentacyclo[16.5.2.1^2,6.0^12,17.0^21,24]hexacosa-1(23),2,4,6(26),12(17),13,15,18,20,24-decaen-5-yl}-hexahydro-1H-[1,3]oxazolo[3,4-a]pyrazin-3-one] |  |  |  |
| ≤ 5 | O=C1OC[C@@H]2CN(c3ccc4cc3OCCCOc3cccc(F)c3-c3cc5c-4n[nH]c5cn3)CCN12 [Compound 135, (8aS)-7-{16-fluoro-7,11-dioxa-19,22,23-triazapentacyclo[16.5.2.1^2,6.0^12,17.0^21,24]hexacosa-1(23),2,4,6(26),12(17),13,15,18,20,24-decaen-5-yl}-hexahydro-1H-[1,3]oxazolo[3,4-a]pyrazin-3-one] |  |  |  |
| ≤ 5 | CN1C[C@H]2CN(c3ccc4cc3OCCCOc3cccc(F)c3-c3cc5c-4n[nH]c5cn3)CCN2CC1=O [Compound 137, (9aR)-8-{16-fluoro-7,11-dioxa-19,22,23-triazapentacyclo[16.5.2.1^2,6.0^12,17.0^21,24]hexacosa-1(23),2,4,6(26),12(17),13,15,18,20,24-decaen-5-yl}-2-methyl-octahydro-1H-[1,4]diazino[1,2-a]pyrazin-3-one] |  |  |  |
| ≤ 5 | CN1C[C@@H]2CN(c3ccc4cc3OCCCOc3cccc(F)c3-c3cc5c-4n[nH]c5cn3)CCN2CC1=O [Compound 138, (9aS)-8-{16-fluoro-7,11-dioxa-19,22,23-triazapentacyclo[16.5.2.1^2,6.0^12,17.0^21,24]hexacosa-1(23),2,4,6(26),12(17),13,15,18,20,24-decaen-5-yl}-2-methyl-octahydro-1H-[1,4]diazino[1,2-a]pyrazin-3-one] |  |  |  |
